Assay results: patent US10988474B2, “Compounds acting at multiple prostaglandin receptors giving a general anti-inflammatory response” (ALLERGAN, INC., priority 2011, dated 2021)

Experiments:
Assay type in all cases: cell-based
[1] = target: T1, human prostanoid EP4 receptor (Homo sapiens, UniProt P35408); assay: FLIPR Ca2+ signaling PG antagonist assay, EP4 stable cell line; settings: HEK-293 EBNA cells, human recombinant EP4 with chimeric Gqs; standard agonist PGE2
T1 construct: expressed in transfected cells
T1 sequence (P35408 whole entry): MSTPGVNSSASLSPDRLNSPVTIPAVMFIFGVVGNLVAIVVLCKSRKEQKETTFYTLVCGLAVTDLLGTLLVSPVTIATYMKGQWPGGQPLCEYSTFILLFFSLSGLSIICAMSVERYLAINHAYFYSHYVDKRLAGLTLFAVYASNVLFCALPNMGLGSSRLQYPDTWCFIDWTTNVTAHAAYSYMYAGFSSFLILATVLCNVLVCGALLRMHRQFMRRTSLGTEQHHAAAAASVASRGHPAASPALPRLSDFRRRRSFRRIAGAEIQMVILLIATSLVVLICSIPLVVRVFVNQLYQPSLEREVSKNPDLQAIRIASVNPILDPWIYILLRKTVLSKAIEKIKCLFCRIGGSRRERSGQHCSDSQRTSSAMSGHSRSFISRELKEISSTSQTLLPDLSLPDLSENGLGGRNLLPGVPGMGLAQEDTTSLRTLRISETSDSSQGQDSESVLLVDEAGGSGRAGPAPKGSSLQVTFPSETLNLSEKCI
Experimental: (§1) The above compounds were tested for PG antagonist activity as follows using human recombinant prostanoid receptor (DP1, EP1-4, FP, IP and TP) stable cell lines: In order to measure the response of Gs and Gi coupled prostanoid receptors as a Ca^2+ signal, chimeric G protein cDNAs were used. Stable cell lines over-expressing human prostanoid DP1, EP1-4, FP, IP, and TP receptors were established as follows:
(§2) Briefly, human prostanoid DP1, EP2, and EP4 receptor cDNAs were co-transfected with chimeric Gqs cDNA containing a haemagglutanin (HA) epitope; human prostanoid EP3 receptors were co-transfected with chimeric Gqi-HA; human EP1, FP, IP, and TP receptor cDNAs were expressed with no exogenous G-proteins. Gqs and Gqi chimeric cDNAs (Molecular Devices, Sunnyvale, Calif., U.S.A.), as well as cDNAs of prostanoid receptors, were cloned into a pCEP4 vector with a hygromycin B selection marker. Transfection into HEK-293 EBNA (Epstein-Barr virus nuclear antigen) cells was achieved by the FuGENE 6 transfection Reagent (Roche Applied Science, Indianapolis, Ind., USA). Stable transfectants were selected according to hygromycin resistance. Because Gqs and Gqi contained an HA epitope, G-protein expression was detected by Western blotting analysis using anti-mouse HA monoclonal antibody and horseradish peroxidase (HRP)-conjugated secondary antibody, while functional expression of prostanoid receptors was detected by FLIPR screening (Matias et al., 2004). These stable cell lines were validated using previously published antagonists at 10 μM against serial dilutions of standard agonists by FLIPR functional assays for Ca^2+ Signaling (as described below).
(§3) Ca^2+ signaling studies were performed using a FLIPR TETRA system (Molecular Devices, Sunnyvale, Calif., USA) in the 384-format. This is a high-throughput instrument for cell-based assays to monitor Ca^2+ signaling associated with GPCRs and ion channels. Cells were seeded at a density of 5×10^4 cells/well in BioCoat poly-D-lysine coated, black wall, clear bottom 384-well plates (BD Biosciences, Franklin lakes, NJ, USA) and allowed to attach overnight in an incubator at 37° C. The cells were then washed twice with HBSS-HEPES buffer (Hanks' balanced salt solution without bicarbonate and phenol red, 20 mM HEPES, pH 7.4) using an ELx405 Select CW Microplate Washer (BioTek, Winooski, Vt., USA). After 60 min of dye-loading in the dark using the Ca^2+-sensitive dye Fluo-4AM (Invitrogen, Carlsbad, Calif., USA), at a final concentration of 2×10^−6M, the plates were washed 4 times with HBSS-HEPES buffer to remove excess dye and leaving 50 μl of buffer in each well. The plates were then placed in the FLIPR TETRA instrument and allowed to equilibrate at 37° C. Compounds were added in a 25 μl volume to each well to give final concentrations of 0.1 μM, 0.3 μM, 1 μM, 3 μM, 10 μM, and 30 μM; or 0.067 μM, 0.1 μM, 0.2 μM, 0.3 μM, 0.67 μM, and 1 μM for cells over-expressing TP receptors. After 4.5 minutes, a 7-point serial dilution of the standard agonist for the corresponding receptor, in a 25 μl volume was injected at the final concentrations from 10^−11M to 10^−5M in 10-fold serial dilution increments for cells expressing human recombinant DP1, EP1, EP2, EP3, EP4, FP, and IP receptors. The dose range for the standard agonist for human recombinant TP receptors was from 10^−12M to 10^−6M. HBSS-HEPES buffer was used as the negative control for the standard agonists. Cells were excited with LED (light emitting diode) excitation at 470-495 nm and emission was measured through an emission filter at 515-575 nm. Assay plates were read for 3.5 minutes using the FLIPR^TETRA. The peak increase in fluorescence intensity was recorded for each well. On each plate, negative controls, dose response of positive controls, and co-treatments of antagonist-agonist for each dose were in triplicates. Standard agonists were as follows: DP=BW 245C, EP1-EP4=PGE2, FP=17-phenyl-PGF2α, IP=Cicaprost, and TP=U-46619. […]

[2] = target: T2, human prostanoid EP2 receptor (Homo sapiens, UniProt P43116); assay: FLIPR Ca2+ signaling PG antagonist assay, EP2 stable cell line; settings: HEK-293 EBNA cells, human recombinant EP2 with chimeric Gqs; standard agonist PGE2
T2 construct: expressed in transfected cells
T2 sequence (P43116 whole entry): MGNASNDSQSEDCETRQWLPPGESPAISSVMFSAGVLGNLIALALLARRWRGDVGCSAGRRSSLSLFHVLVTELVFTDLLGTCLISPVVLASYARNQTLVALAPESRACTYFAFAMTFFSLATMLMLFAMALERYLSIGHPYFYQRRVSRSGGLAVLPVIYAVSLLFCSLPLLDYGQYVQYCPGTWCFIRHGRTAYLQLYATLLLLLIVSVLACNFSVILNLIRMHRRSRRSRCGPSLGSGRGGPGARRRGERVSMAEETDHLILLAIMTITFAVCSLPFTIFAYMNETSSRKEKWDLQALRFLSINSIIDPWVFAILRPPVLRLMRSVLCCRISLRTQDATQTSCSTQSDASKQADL
Experimental: as §1, §2, §3

[3] = target: T3, human prostanoid EP3 receptor (Homo sapiens, UniProt P43115); assay: FLIPR Ca2+ signaling PG antagonist assay, EP3 stable cell line; settings: HEK-293 EBNA cells, human recombinant EP3 with chimeric Gqi; standard agonist PGE2
T3 construct: expressed in transfected cells
T3 sequence (P43115 1-390): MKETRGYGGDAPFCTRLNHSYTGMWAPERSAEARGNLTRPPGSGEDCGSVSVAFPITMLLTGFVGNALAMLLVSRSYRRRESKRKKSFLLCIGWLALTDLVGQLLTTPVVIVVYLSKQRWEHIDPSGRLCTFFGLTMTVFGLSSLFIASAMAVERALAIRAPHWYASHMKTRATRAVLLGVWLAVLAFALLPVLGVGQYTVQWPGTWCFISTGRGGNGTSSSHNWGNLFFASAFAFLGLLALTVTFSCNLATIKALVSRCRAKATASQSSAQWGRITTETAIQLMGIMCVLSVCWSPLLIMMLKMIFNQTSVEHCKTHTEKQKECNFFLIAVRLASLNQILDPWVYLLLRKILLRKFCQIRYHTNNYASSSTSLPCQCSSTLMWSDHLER
Experimental: as §1, §2, §3

[4] = target: T4, human prostanoid TP receptor (Homo sapiens, UniProt P21731); assay: FLIPR Ca2+ signaling PG antagonist assay, TP stable cell line; settings: HEK-293 EBNA cells, human recombinant TP, no exogenous G-protein; standard agonist U-46619
T4 construct: expressed in transfected cells
T4 sequence (P21731 1-343): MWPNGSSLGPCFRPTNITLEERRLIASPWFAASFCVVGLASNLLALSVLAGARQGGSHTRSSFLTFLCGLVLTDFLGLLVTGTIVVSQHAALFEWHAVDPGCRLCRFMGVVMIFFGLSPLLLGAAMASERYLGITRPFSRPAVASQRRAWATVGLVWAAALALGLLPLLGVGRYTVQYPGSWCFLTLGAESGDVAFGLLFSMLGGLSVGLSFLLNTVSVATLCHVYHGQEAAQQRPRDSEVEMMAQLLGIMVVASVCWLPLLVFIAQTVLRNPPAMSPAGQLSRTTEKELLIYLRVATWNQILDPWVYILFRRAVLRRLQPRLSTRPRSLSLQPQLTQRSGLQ
Experimental: as §1, §2, §3

[5] = target: T5, human prostanoid IP receptor (Homo sapiens, UniProt P43119); assay: FLIPR Ca2+ signaling PG antagonist assay, IP stable cell line; settings: HEK-293 EBNA cells, human recombinant IP, no exogenous G-protein; standard agonist Cicaprost
T5 construct: expressed in transfected cells
T5 sequence (P43119 whole entry): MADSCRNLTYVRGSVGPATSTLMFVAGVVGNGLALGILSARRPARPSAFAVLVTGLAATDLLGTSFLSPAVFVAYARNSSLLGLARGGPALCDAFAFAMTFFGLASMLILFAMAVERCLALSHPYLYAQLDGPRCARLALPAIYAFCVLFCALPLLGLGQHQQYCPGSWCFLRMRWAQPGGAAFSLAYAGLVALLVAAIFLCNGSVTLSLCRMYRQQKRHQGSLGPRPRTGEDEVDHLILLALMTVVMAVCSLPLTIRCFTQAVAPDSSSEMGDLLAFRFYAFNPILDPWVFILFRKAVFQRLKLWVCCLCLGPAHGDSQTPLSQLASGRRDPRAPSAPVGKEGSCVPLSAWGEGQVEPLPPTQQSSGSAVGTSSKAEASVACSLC
Experimental: as §1, §2, §3

Row | Structure (SMILES) | Kb [1] [µM] | Kb [2] [µM] | Kb [3] [µM] | Kb [4] [µM] | Kb [5] [µM] | TP (Kb, PG antagonist activity) [4] | IP (Kb, PG antagonist activity) [5]
1 | Cc1nn(Cc2cc(OC(F)(F)F)ccc2OCC(C)C)c2ccc(C(=O)O)cc12 [Example 22, 1-(2-Isobutoxy-5-Trifluoromethoxy-Benzyl)-3-Methyl-1H-Indazole-5-Carboxylic Acid] | 0.35 | ≥ 10 | ≥ 10 | 0.005 | 6 |  | 
2 | CCC(CC)COc1ccc(Cl)cc1Cn1nc(C)c2cc(C(=O)O)ccc21 [Example 23, 1-[5-Chloro-2-(2-Ethyl-Butoxy)-Benzyl]-3-Methyl-1H-Indazole-5-Carboxylic Acid] | 0.05 | 7.1 | 1.2 | 0.001 | 0.5 |  | 
3 | Cc1nn(Cc2cc(Cl)ccc2OCC(C)C)c2ccc(C(=O)O)cc12 [Example 24, 1-(5-Chloro-2-Isobutoxy-Benzyl)-3-Methyl-1H-Indazole-5-Carboxylic Acid] | 0.15 | 4.5 | 2.44 | 0.08 | 1.43 |  | 
4 | Cc1nn(Cc2cc(C(F)(F)F)ccc2OCC(C)C)c2ccc(C(=O)O)cc12 [Example 25, 1-(2-Isobutoxy-5-Trifluoromethyl-Benzyl)-3-Methyl-1H-Indazole-5-Carboxylic Acid] | 0.16 | 9.3 | 4.5 | 0.05 | 1.03 |  | 
5 | CCC(CC)COc1ccc(C(F)(F)F)cc1Cn1nc(C)c2cc(C(=O)O)ccc21 [Example 26, 1-[2-(2-Ethyl-Butoxy)-5-Trifluoromethyl-Benzyl]-3-Methyl-1H-Indazole-5-Carboxylic Acid] | 0.07 | ≥ 10 | 3.3 | 0.018 | 1.8 |  | 
6 | CCC(CC)COc1ccc(Br)cc1Cn1nc(C)c2cc(C(=O)O)ccc21 [Example 27, 1-[5-Bromo-2-(2-Ethyl-Butoxy)-Benzyl]-3-Methyl-1H-Indazole-5-Carboxylic Acid] | 0.053 | 3.64 | 2.6 | 0.02 | 0.44 |  | 
7 | Cc1nn(Cc2cc(Br)ccc2OCC2(C)CC2)c2ccc(C(=O)O)cc12 [Example 28, 1-[5-Bromo-2-(1-Methyl-Cyclopropylmethoxy)-Benzyl]-3-Methyl-1H-Indazole-5-Carboxylic Acid] | 0.04 | 9.2 | 2.22 | 0.007 | 1.53 |  | 
8 | O=C(O)c1ccc2c(cnn2Cc2cc(C(F)(F)F)ccc2OCc2ccc(Cl)cc2)c1 [Example 32, 1-[2-(4-Chloro-Benzyloxy)-5-Trifluoromethyl-Benzyl]-1H-Indazole-5-Carboxylic Acid] | 5 | ≥ 10 | ≥ 10 | 0.05 | 7.4 |  | 
9 | O=C(O)c1ccc2c(cnn2Cc2cc(C(F)(F)F)ccc2OCC2CCCC2)c1 [Example 33, 1-(2-Cyclopentylmethoxy-5-Trifluoromethyl-Benzyl)-1H-Indazole-5-Carboxylic Acid] | 0.03 | 2.6 | 1.4 | 0.001 | 0.4 |  | 
10 | O=C(O)c1cccc2c1cnn2Cc1cc(Cl)ccc1OCC1CC1 [Example 34, 1-(5-Chloro-2-Cyclopropylmethoxy-Benzyl)-1H-Indazole-4-Carboxylic Acid] | ≥ 10 | ≥ 10 | ≥ 10 | 0.1 | ≥ 10 |  | 
11 | O=C(O)c1cccc2nn(Cc3cc(Cl)ccc3OCC3CC3)cc12 [Example 35, 2-(5-Chloro-2-Cyclopropylmethoxy-Benzyl)-2H-Indazole-4-Carboxylic Acid] | 0.67 | ≥ 10 | ≥ 10 | 1.2 | ≥ 10 |  | 
12 | CC(C)COc1ccc(Cl)cc1Cn1ncc2c(C(=O)O)cccc21 [Example 36, 1-(5-Chloro-2-Isobutoxy-Benzyl)-1H-Indazole-4-Carboxylic Acid] | 1.2 | 2.9 | 4 | 0.003 | 0.2 |  | 
13 | CC(C)COc1ccc(Cl)cc1Cn1cc2c(C(=O)O)cccc2n1 [Example 37, 2-(5-Chloro-2-Isobutoxy-Benzyl)-2H-Indazole-4-Carboxylic Acid] | 0.7 | ≥ 10 | 3.4 | 0.2 | ≥ 10 |  | 
14 | CCC(CC)COc1ccc(Cl)cc1Cn1ncc2c(C(=O)O)cccc21 [Example 38, 1-[5-Chloro-2-(2-Ethyl-Butoxy)-Benzyl]-1H-Indazole-4-Carboxylic Acid] | 0.4 | 2.1 | 1.7 | 0.003 | 0.06 |  | 
15 | CCC(CC)COc1ccc(Cl)cc1Cn1cc2c(C(=O)O)cccc2n1 [Example 39, 2-[5-Chloro-2-(2-Ethyl-Butoxy)-Benzyl]-2H-Indazole-4-Carboxylic Acid] | 1.6 | ≥ 10 | 5.5 | 0.11 | 4.9 |  | 
16 | O=C(O)c1cccc2c1cnn2Cc1cc(Cl)ccc1OCc1ccc(Cl)cc1 [Example 40, 1-[5-Chloro-2-(4-Chloro-Benzyloxy)-Benzyl]-1H-Indazole-4-Carboxylic Acid] | 2.5 | 0.9 | ≥ 12 |  |  | Ag | PAg
17 | O=C(O)c1cccc2nn(Cc3cc(Cl)ccc3OCc3ccc(Cl)cc3)cc12 [Example 41, 2-[5-Chloro-2-(4-Chloro-Benzyloxy)-Benzyl]-2H-Indazole-4-Carboxylic Acid] | ≥ 10 | ≥ 10 | ≥ 10 | 7.4 | 9.8 |  | 
